Results published in patent publication US20100298141A1, “SUBSTITUTED PYRIDINE N-OXIDE HERBICIDES” (E. I. DU PONT DE NEMOURS AND COMPANY, priority 2007, published 2010).

Tests used:
[1] = tested on: common (oilseed) sunflower; experiment: Test C pre-/postemergence test; assay type: in vivo, Helianthus annuus; settings: for Plant response rating, Sunflower: 31 g ai/ha, scale 0 to 100 (0 no effect, 100 complete control)
Method in brief: (§1)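 Test chemicals were formulated with surfactant in a non-phytotoxic solvent and sprayed both on freshly planted seeds (preemergence) and on 1- to 4-leaf plants of 2–18 cm (postemergence). Flooded-paddy pots received compound directly into 3 cm of standing water, maintained for the test.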

umbrella sedge = experiment: Test C flooded paddy test; assay type: in vivo, Cyperus difformis; settings: Flood
Method in brief: (§2)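 Flooded 3 cm over soil; compound into paddy water; depth kept constant. Greenhouse 13–15 d.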

yellow nutsedge = experiment: Test C pre-/postemergence test; assay type: in vivo, Cyperus esculentus; settings: for Plant response rating, Nutsedge, Yellow: 31 g ai/ha, scale 0 to 100 (0 no effect, 100 complete control)
Method in brief: as §1

corn = experiment: Test A pre-/postemergence greenhouse test; assay type: in vivo, Zea mays; settings: for Corn plant response rating: 0 to 100 scale; for Plant response rating, Corn: 0 to 100 scale where 0 is no effect and 100 is complete control
Method in brief: (§3)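 Two application timings were run side by side in the greenhouse. Before emergence, compound went onto the soil surface of loam–sand pots as a directed spray; after emergence, plants at 2–10 cm and the one- to two-leaf stage were treated. Visual injury versus controls was rated at approximately day ten.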

morningglory [2] = experiment: Test A pre-/postemergence greenhouse test; assay type: in vivo, Ipomoea spp.; settings: for Morningglory plant response rating: 0 to 100 scale; for Plant response rating, Morningglory: 0 to 100 scale where 0 is no effect and 100 is complete control
Method in brief: as §3

Italian ryegrass = experiment: Test C pre-/postemergence test; assay type: in vivo, Lolium multiflorum; settings: for Plant response rating, Ryegrass, Italian: 31 g ai/ha, scale 0 to 100 (0 no effect, 100 complete control)
Method in brief: as §1

Goosegrass = experiment: Test C pre-/postemergence test; assay type: in vivo, Eleusin indica; settings: for Plant response rating, Goosegrass: 31 g ai/ha, scale 0 to 100 (0 no effect, 100 complete control)
Method in brief: as §1

catchweed bedstraw = experiment: Test C pre-/postemergence test; assay type: in vivo, Galium aparine; settings: for Plant response rating, Galium: 31 g ai/ha, scale 0 to 100 (0 no effect, 100 complete control)
Method in brief: as §1

crabgrass = experiment: Test A pre-/postemergence greenhouse test; assay type: in vivo, Digitaria sanguinalis; settings: for Crabgrass, Large plant response rating: 0 to 100 scale; for Plant response rating, Crabgrass, Large: 0 to 100 scale where 0 is no effect and 100 is complete control
Method in brief: as §3

pigweed = experiment: Test C pre-/postemergence test; assay type: in vivo, Amaranthus retroflexus; settings: for Plant response rating, Pigweed: 31 g ai/ha, scale 0 to 100 (0 no effect, 100 complete control)
Method in brief: as §1

soybean = experiment: Test C pre-/postemergence test; assay type: in vivo, Glycine max; settings: for Plant response rating, Soybean: 31 g ai/ha, scale 0 to 100 (0 no effect, 100 complete control)
Method in brief: as §1

giant foxtail = experiment: Test A pre-/postemergence greenhouse test; assay type: in vivo, Setaria faberi; settings: for Foxtail, Giant plant response rating: 0 to 100 scale; for Plant response rating, Foxtail, Giant: 0 to 100 scale where 0 is no effect and 100 is complete control
Method in brief: as §3

morningglory [3] = experiment: Test C pre-/postemergence test; assay type: in vivo, Ipomoea coccinea; settings: for Plant response rating, Morningglory: 31 g ai/ha, scale 0 to 100 (0 no effect, 100 complete control)
Method in brief: as §1

barnyardgrass = experiment: Test C flooded paddy test; assay type: in vivo, Echinochloa crus-galli; settings: Flood
Method in brief: as §2

wheat [4] = experiment: Test C pre-/postemergence test; assay type: in vivo, Triticum aestivum; settings: for Plant response rating, Wheat: 31 g ai/ha, scale 0 to 100 (0 no effect, 100 complete control)
Method in brief: as §1

wheat [5] = experiment: Test A pre-/postemergence greenhouse test; assay type: in vivo, Triticum aestivum; settings: for Wheat plant response rating: 0 to 100 scale; for Plant response rating, Wheat: 0 to 100 scale where 0 is no effect and 100 is complete control
Method in brief: as §3

bermudagrass = experiment: Test C pre-/postemergence test; assay type: in vivo, Cynodon dactylon; settings: for Plant response rating, Bermudagrass: 31 g ai/ha
Method in brief: as §1

[6] = 62 g ai/ha, Preemergence, scale 0 to 100
[7] = 125 g ai/ha, preemergence, scale 0 (no effect) to 100 (complete control)
[8] = preemergence, 250 g ai/ha, scale 0 (no effect) to 100 (complete control)
[9] = 31 g ai/ha, scale 0 to 100 (0 no effect, 100 complete control)
[10] = 62 g ai/ha, scale 0 to 100, 0 no effect, 100 complete control, 13 to 15 days
[11] = 125 g ai/ha, scale 0 to 100, 0 no effect, 100 complete control, 13 to 15 days
[12] = 250 g ai/ha, scale 0 to 100, 0 no effect, 100 complete control, 13 to 15 days
[13] = Postemergence, 125 g ai/ha, 0 is no effect, 100 is complete control
[14] = Postemergence, 500 g ai/ha, 0 is no effect, 100 is complete control
[15] = Preemergence, 125 g ai/ha, 0 no effect, 100 complete control
[16] = 62 g ai/ha, Preemergence, scale 0 to 100 (0 no effect, 100 complete control)
[17] = Preemergence, scale 0 to 100 (0 no effect, 100 complete control)

## Cn1nc(C(F)(F)F)c(C[S+]([O-])c2cc(Br)cc[n+]2[O-])c1Cl (racemic) [Compound 35]
[1]; [6]
  Sunflower plant response rating: 0
[1]; [7]
  Sunflower plant response rating: 0
[1]; Preemergence
  Plant response rating, Sunflower: 0
[1]; [8]
  Sunflower plant response rating: 30
Umbrella sedge; [9]
  Plant response rating, Sedge, Umbrella: 80
Umbrella sedge; [10]
  Plant response rating, Sedge, Umbrella: 90
Umbrella sedge; [11]
  Plant response rating, Sedge, Umbrella: 95
Umbrella sedge; [12]
  Plant response rating, Sedge, Umbrella: 95
Yellow nutsedge; [6]
  Nutsedge, Yellow plant response rating: 60
Yellow nutsedge; [7]
  Nutsedge, Yellow plant response rating: 90
Yellow nutsedge; Preemergence
  Plant response rating, Nutsedge, Yellow: 0
Yellow nutsedge; [8]
  Nutsedge, Yellow plant response rating: 100
corn; [13]
  Corn plant response rating: 0
corn; [14]
  Corn plant response rating: 30
corn; [15]
  Corn plant response rating: 0
corn; Preemergence, 500 g ai/ha
  Plant response rating, Corn: 0
Morningglory [2]; [13]
  Morningglory plant response rating: 40
Morningglory [2]; [14]
  Morningglory plant response rating: 70
Morningglory [2]; [15]
  Morningglory plant response rating: 50
Morningglory [2]; Preemergence, 500 g ai/ha
  Plant response rating, Morningglory: 80
Italian ryegrass; [6]
  Ryegrass, Italian plant response rating: 20
Italian ryegrass; [7]
  Ryegrass, Italian plant response rating: 20
Italian ryegrass; Preemergence
  Plant response rating, Ryegrass, Italian: 10
Italian ryegrass; [8]
  Ryegrass, Italian plant response rating: 20
Goosegrass; [6]
  Goosegrass plant response rating: 100
Goosegrass; [7]
  Goosegrass plant response rating: 100
Goosegrass; Preemergence
  Plant response rating, Goosegrass: 80
Goosegrass; [8]
  Goosegrass plant response rating: 100
Catchweed bedstraw; [6]
  Galium plant response rating: 100
Catchweed bedstraw; [7]
  Galium plant response rating: 100
Catchweed bedstraw; Preemergence
  Plant response rating, Galium: 0
Catchweed bedstraw; [8]
  Galium plant response rating: 100
crabgrass; [13]
  Crabgrass, Large plant response rating: 50
crabgrass; [14]
  Crabgrass, Large plant response rating: 80
crabgrass; [15]
  Crabgrass, Large plant response rating: 60
crabgrass; Preemergence, 500 g ai/ha
  Plant response rating, Crabgrass, Large: 80
pigweed; [6]
  Pigweed plant response rating: 100
pigweed; [7]
  Pigweed plant response rating: 100
pigweed; Preemergence
  Plant response rating, Pigweed: 100
pigweed; [8]
  Pigweed plant response rating: 100
soybean; [6]
  Soybean plant response rating: 0
soybean; [7]
  Soybean plant response rating: 10
soybean; Preemergence
  Plant response rating, Soybean: 0
soybean; [8]
  Soybean plant response rating: 60
Giant foxtail; [13]
  Foxtail, Giant plant response rating: 50
Giant foxtail; [14]
  Foxtail, Giant plant response rating: 80
Giant foxtail; [15]
  Foxtail, Giant plant response rating: 100
Giant foxtail; Preemergence, 500 g ai/ha
  Plant response rating, Foxtail, Giant: 100
Morningglory [3]; [6]
  Morningglory plant response rating: 0
Morningglory [3]; [7]
  Morningglory plant response rating: 80
Morningglory [3]; Preemergence
  Plant response rating, Morningglory: 0
Morningglory [3]; [8]
  Morningglory plant response rating: 85
barnyardgrass; [9]
  Plant response rating, Barnyardgrass: 0
barnyardgrass; [10]
  Plant response rating, Barnyardgrass: 0
barnyardgrass; [11]
  Plant response rating, Barnyardgrass: 20
barnyardgrass; [12]
  Plant response rating, Barnyardgrass: 40
Wheat [4]; [6]
  Wheat plant response rating: 25
Wheat [4]; [7]
  Wheat plant response rating: 25
Wheat [4]; Preemergence
  Plant response rating, Wheat: 0
Wheat [4]; [8]
  Wheat plant response rating: 25
Wheat [5]; [13]
  Wheat plant response rating: 40
Wheat [5]; [14]
  Wheat plant response rating: 50
Wheat [5]; [15]
  Wheat plant response rating: 30
Wheat [5]; Preemergence, 500 g ai/ha
  Plant response rating, Wheat: 50
bermudagrass; [16]
  Bermudagrass plant response rating: 100
bermudagrass; [7]
  Bermudagrass plant response rating: 100
bermudagrass; [17]
  Plant response rating, Bermudagrass: 90
bermudagrass; [8]
  Bermudagrass plant response rating: 100

## Cn1nc(C(F)(F)F)c(C(Cl)S(=O)(=O)c2cccc[n+]2[O-])c1OCC(F)(F)F (racemic) [Compound 36]
[1]; [6]
  Sunflower plant response rating: 0
[1]; [7]
  Sunflower plant response rating: 0
[1]; Preemergence
  Plant response rating, Sunflower: 0
[1]; [8]
  Sunflower plant response rating: 0
Umbrella sedge; [9]
  Plant response rating, Sedge, Umbrella: 80
Umbrella sedge; [10]
  Plant response rating, Sedge, Umbrella: 85
Umbrella sedge; [11]
  Plant response rating, Sedge, Umbrella: 95
Umbrella sedge; [12]
  Plant response rating, Sedge, Umbrella: 100
Yellow nutsedge; [6]
  Nutsedge, Yellow plant response rating: 50
Yellow nutsedge; [7]
  Nutsedge, Yellow plant response rating: 100
Yellow nutsedge; Preemergence
  Plant response rating, Nutsedge, Yellow: 0
Yellow nutsedge; [8]
  Nutsedge, Yellow plant response rating: 100
corn; [13]
  Corn plant response rating: 0
corn; [14]
  Corn plant response rating: 0
corn; [15]
  Corn plant response rating: 0
corn; Preemergence, 500 g ai/ha
  Plant response rating, Corn: 0
Morningglory [2]; [13]
  Morningglory plant response rating: 0
Morningglory [2]; [14]
  Morningglory plant response rating: 30
Morningglory [2]; [15]
  Morningglory plant response rating: 0
Morningglory [2]; Preemergence, 500 g ai/ha
  Plant response rating, Morningglory: 80
Italian ryegrass; [6]
  Ryegrass, Italian plant response rating: 98
Italian ryegrass; [7]
  Ryegrass, Italian plant response rating: 100
Italian ryegrass; Preemergence
  Plant response rating, Ryegrass, Italian: 30
Italian ryegrass; [8]
  Ryegrass, Italian plant response rating: 100
Goosegrass; [6]
  Goosegrass plant response rating: 100
Goosegrass; [7]
  Goosegrass plant response rating: 100
Goosegrass; Preemergence
  Plant response rating, Goosegrass: 85
Goosegrass; [8]
  Goosegrass plant response rating: 100
Catchweed bedstraw; [6]
  Galium plant response rating: 0
Catchweed bedstraw; [7]
  Galium plant response rating: 100
Catchweed bedstraw; Preemergence
  Plant response rating, Galium: 0
Catchweed bedstraw; [8]
  Galium plant response rating: 100
crabgrass; [13]
  Crabgrass, Large plant response rating: 50
crabgrass; [14]
  Crabgrass, Large plant response rating: 80
crabgrass; [15]
  Crabgrass, Large plant response rating: 70
crabgrass; Preemergence, 500 g ai/ha
  Plant response rating, Crabgrass, Large: 90
pigweed; [6]
  Pigweed plant response rating: 90
pigweed; [7]
  Pigweed plant response rating: 100
pigweed; Preemergence
  Plant response rating, Pigweed: 80
pigweed; [8]
  Pigweed plant response rating: 100
soybean; [6]
  Soybean plant response rating: 5
soybean; [7]
  Soybean plant response rating: 15
soybean; Preemergence
  Plant response rating, Soybean: 0
soybean; [8]
  Soybean plant response rating: 20
Giant foxtail; [13]
  Foxtail, Giant plant response rating: 40
Giant foxtail; [14]
  Foxtail, Giant plant response rating: 70
Giant foxtail; [15]
  Foxtail, Giant plant response rating: 100
Giant foxtail; Preemergence, 500 g ai/ha
  Plant response rating, Foxtail, Giant: 100
Morningglory [3]; [6]
  Morningglory plant response rating: 10
Morningglory [3]; [7]
  Morningglory plant response rating: 60
Morningglory [3]; Preemergence
  Plant response rating, Morningglory: 0
Morningglory [3]; [8]
  Morningglory plant response rating: 75
barnyardgrass; [9]
  Plant response rating, Barnyardgrass: 0
barnyardgrass; [10]
  Plant response rating, Barnyardgrass: 10
barnyardgrass; [11]
  Plant response rating, Barnyardgrass: 25
barnyardgrass; [12]
  Plant response rating, Barnyardgrass: 90
Wheat [4]; [6]
  Wheat plant response rating: 0
Wheat [4]; [7]
  Wheat plant response rating: 0
Wheat [4]; Preemergence
  Plant response rating, Wheat: 0
Wheat [4]; [8]
  Wheat plant response rating: 15
Wheat [5]; [13]
  Wheat plant response rating: 0
Wheat [5]; [14]
  Wheat plant response rating: 50
Wheat [5]; [15]
  Wheat plant response rating: 20
Wheat [5]; Preemergence, 500 g ai/ha
  Plant response rating, Wheat: 60
bermudagrass; [16]
  Bermudagrass plant response rating: 100
bermudagrass; [7]
  Bermudagrass plant response rating: 100
bermudagrass; [17]
  Plant response rating, Bermudagrass: 85
bermudagrass; [8]
  Bermudagrass plant response rating: 100
